Test results: patent US6355799B1, “Substituted benzene compounds, process for their preparation, and herbicidal and defoliant compositions containing them” (ISK Americas Incorporated, priority 1997, dated 2002)

How the values were obtained:
Type in all cases: in vivo
[1] = test system: redroot pigweed (Amaranthus retroflexus, AMARE); assay: Pre-emerge test, greenhouse herbicide activity screening; conditions: pre-emerge; for Pre-emerge Herbicidal Activity AMARE (phytotoxicity rating, scale 0-100): rated 14 days after application, 0 = no damage, 100 = complete death; for phytotoxicity rating AMARE: 14 days after application, rating scale 0-100
In short: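 Compounds in acetone were track-sprayed at 187 l/ha, 15–1000 g ai/ha, onto sandy loam pots. Pre-emerge seeds were sown one day before spraying, with surface watering afterwards. Post-emerge plants were at the 2–3 leaf stage and sprayed with 0.25% v/v non-ionic surfactant. Injury was rated 0–100 at 14 days.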

[2] = test system: common ragweed (Ambrosia artemisizfolia L., AMBEL); assay: Post-emerge test, greenhouse herbicide activity screening; conditions: phytotoxicity rating 0-100 (0 no damage, 100 complete death), 14 days after application
In short: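 Applied at 15–1000 g ai/ha from acetone in 187 l/ha spray volume. Post-emergence applications included 0.25% v/v non-ionic surfactant and reached plants sown 8–21 days before. Pre-emergence applications were incorporated by surface watering. Efficacy or crop damage was rated on a 0–100 scale after 14 days.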

[3] = test system: cocklebur (Xanthium strumarium, XANST); assay: Pre-emerge test, greenhouse herbicide activity screening; conditions: 14 days after application, rating scale 0-100
[4] = test system: johnsongrass (Sorghum halepense, SORHA); assay: as above; conditions: pre-emerge; for Pre-emerge Herbicidal Activity SORHA (phytotoxicity rating, scale 0-100): rated 14 days after application, 0 = no damage, 100 = complete death; for phytotoxicity rating SORHA: 14 days after application, rating scale 0-100
In short: (§1)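 Rating: 0–100 visual injury, 14 DAA. Application: acetone, 187 l/ha, 15–1000 g ai/ha, flat-fan track sprayer with nozzle 40–45 cm above soil or canopy. Post-emerge runs used 0.25% v/v surfactant on 2–3 leaf plants.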

[5] = test system: common ragweed (Ambrosia artemisizfolia L., AMBEL); assay: as above; conditions: pre-emerge, rated 14 days after application, 0 = no damage, 100 = complete death
In short: as §1

[6] = test system: lambsquarters (Chenopodium album, CHEAL); assay: as above; conditions: pre-emerge; for Pre-emerge Herbicidal Activity CHEAL (phytotoxicity rating, scale 0-100): rated 14 days after application, 0 = no damage, 100 = complete death; for phytotoxicity rating CHEAL: 14 days after application, rating scale 0-100
In short: as §1

[7] = test system: velvetleaf (Abutilon theophrasti, ABUTH); assay: as above; conditions: pre-emerge; for Pre-emerge Herbicidal Activity ABUTH (phytotoxicity rating, scale 0-100): rated 14 days after application, 0 = no damage, 100 = complete death; for phytotoxicity rating ABUTH: 14 days after application, rating scale 0-100
In short: as §1

[8] = test system: green foxtail (Setaria viridis, SETVI); assay: as above; conditions: pre-emerge; for Pre-emerge Herbicidal Activity SETVI (phytotoxicity rating, scale 0-100): rated 14 days after application, 0 = no damage, 100 = complete death; for phytotoxicity rating SETVI: 14 days after application, rating scale 0-100
In short: as §1

weed species = assay: Standard greenhouse herbicide activity screening, overall statements on weeds; conditions: comparison with compound 2 of Japanese Pat. No. Toku Kai Hei 5-25144 (Table XIX)
Excerpt: A standard greenhouse herbicide activity screening system was used to evaluate the herbicidal efficacy and crop safety of these test compounds. Seven broadleaf weed species including redroot pigweed (Amaranthus retroflexus, AMARE, velvetleaf (Abutilon theophrasti, ABUTH), sicklepod (Cassia obtusifolia, CASOB), ivyleaf morningglory (Ipomoea hederacea, IPOHE), lambsquarters (Chenopodium album, CHEAL), common ragweed (Ambrosia artemisizfolia L., AMBEL), and cocklebur (Xanthium strumarium, XANST) were used as test species. Four grass weed species including green foxtail (Setaria viridis, SETVI), barnyardgrass (Echinochloa crus-galli, ECHCG), johnsongrass (Sorghum halepense, SORHA), and large crabgrass (Digitaria sanguinalis, DIGSA) were also used. In addition, three crop species, field corn (Zea mays L., var. Dekalb 535, CORN), soybean (Glycine max L., var. Pella 86, SOY), and is upland rice (Oryza sp., var. Tebonnet, RICE) were included.
All plants were grown in 10 cm square plastic pots which were filled with a sandy loam soil mix. For pre-emerge tests, seeds were planted one day prior to application of the test compounds. For post-emerge tests, seeds were planted 8-21 days prior to the test to allow emergence and good foliage development prior to application of the test substances. […]
At 14 days after application of the test materials, phytotoxicity ratings were recorded. […]

Compound: COc1c(Cl)cc(F)c(-n2c(=O)cc(C(F)(F)F)n(C)c2=O)c1N [Compound 1-4, 3-(2-amino-4-chloro-6-fluoro-3-methoxyphenyl)-1-methyl-6-trifluoromethyl-2,4(1H, 3H)-pyrimidinedione]
- Pre-emerge Herbicidal Activity AMARE (phytotoxicity rating, scale 0-100) ([1]; 63 g ai/ha): 100
- Pre-emerge Herbicidal Activity AMARE (phytotoxicity rating, scale 0-100) ([1]; 250 g ai/ha): 100
- phytotoxicity rating AMARE ([1]; 3.9 g ai/ha): 30
- phytotoxicity rating AMARE ([1]; 7.8 g ai/ha): 100
- phytotoxicity rating AMARE ([1]; 15.6 g ai/ha): 90
- phytotoxicity rating AMARE ([1]; 31.3 g ai/ha): 100
- phytotoxicity rating AMARE ([1]; 62.5 g ai/ha): 100
- phytotoxicity rating AMARE ([1]; 125 g ai/ha): 100
- phytotoxicity rating AMARE ([1]; 250 g ai/ha): 100
- Post-emerge Herbicidal Activity AMBEL ([2]; 63 g ai/ha): 50
- Post-emerge Herbicidal Activity AMBEL ([2]; 250 g ai/ha): 90
- phytotoxicity rating XANST ([3]; 3.9 g ai/ha): 0
- phytotoxicity rating XANST ([3]; 7.8 g ai/ha): 0
- phytotoxicity rating XANST ([3]; 15.6 g ai/ha): 20
- phytotoxicity rating XANST ([3]; 31.3 g ai/ha): 10
- phytotoxicity rating XANST ([3]; 62.5 g ai/ha): 50
- phytotoxicity rating XANST ([3]; 125 g ai/ha): 50
- phytotoxicity rating XANST ([3]; 250 g ai/ha): 90
- Pre-emerge Herbicidal Activity SORHA (phytotoxicity rating, scale 0-100) ([4]; 63 g ai/ha): 85
- Pre-emerge Herbicidal Activity SORHA (phytotoxicity rating, scale 0-100) ([4]; 250 g ai/ha): 100
- phytotoxicity rating SORHA ([4]; 3.9 g ai/ha): 0
- phytotoxicity rating SORHA ([4]; 7.8 g ai/ha): 0
- phytotoxicity rating SORHA ([4]; 15.6 g ai/ha): 0
- phytotoxicity rating SORHA ([4]; 31.3 g ai/ha): 30
- phytotoxicity rating SORHA ([4]; 62.5 g ai/ha): 40
- phytotoxicity rating SORHA ([4]; 125 g ai/ha): 95
- phytotoxicity rating SORHA ([4]; 250 g ai/ha): 100
- Pre-emerge Herbicidal Activity AMBEL (phytotoxicity rating, scale 0-100) ([5]; 63 g ai/ha): 100
- Pre-emerge Herbicidal Activity AMBEL (phytotoxicity rating, scale 0-100) ([5]; 250 g ai/ha): 100
- Pre-emerge Herbicidal Activity CHEAL (phytotoxicity rating, scale 0-100) ([6]; 63 g ai/ha): 100
- Pre-emerge Herbicidal Activity CHEAL (phytotoxicity rating, scale 0-100) ([6]; 250 g ai/ha): 100
- phytotoxicity rating CHEAL ([6]; 3.9 g ai/ha): 30
- phytotoxicity rating CHEAL ([6]; 7.8 g ai/ha): 60
- phytotoxicity rating CHEAL ([6]; 15.6 g ai/ha): 100
- phytotoxicity rating CHEAL ([6]; 31.3 g ai/ha): 100
- phytotoxicity rating CHEAL ([6]; 62.5 g ai/ha): 100
- phytotoxicity rating CHEAL ([6]; 125 g ai/ha): 100
- phytotoxicity rating CHEAL ([6]; 250 g ai/ha): 100
- Pre-emerge Herbicidal Activity ABUTH (phytotoxicity rating, scale 0-100) ([7]; 63 g ai/ha): 100
- Pre-emerge Herbicidal Activity ABUTH (phytotoxicity rating, scale 0-100) ([7]; 250 g ai/ha): 100
- phytotoxicity rating ABUTH ([7]; 3.9 g ai/ha): 95
- phytotoxicity rating ABUTH ([7]; 7.8 g ai/ha): 100
- phytotoxicity rating ABUTH ([7]; 15.6 g ai/ha): 100
- phytotoxicity rating ABUTH ([7]; 31.3 g ai/ha): 100
- phytotoxicity rating ABUTH ([7]; 62.5 g ai/ha): 100
- phytotoxicity rating ABUTH ([7]; 125 g ai/ha): 100
- phytotoxicity rating ABUTH ([7]; 250 g ai/ha): 100
- Pre-emerge Herbicidal Activity SETVI (phytotoxicity rating, scale 0-100) ([8]; 63 g ai/ha): 100
- Pre-emerge Herbicidal Activity SETVI (phytotoxicity rating, scale 0-100) ([8]; 250 g ai/ha): 100
- phytotoxicity rating SETVI ([8]; 3.9 g ai/ha): 0
- phytotoxicity rating SETVI ([8]; 7.8 g ai/ha): 60
- phytotoxicity rating SETVI ([8]; 15.6 g ai/ha): 80
- phytotoxicity rating SETVI ([8]; 31.3 g ai/ha): 80
- phytotoxicity rating SETVI ([8]; 62.5 g ai/ha): 100
- phytotoxicity rating SETVI ([8]; 125 g ai/ha): 100
- phytotoxicity rating SETVI ([8]; 250 g ai/ha): 100
- pre-emerge herbicidal activity (weed species): high level of activity
